Laboratory results reported in ChEMBL document CHEMBL3885881, “DrugMatrix”.

Organism: Rattus norvegicus
Assay: DrugMatrix - Regimen: Daily Repeat
Assay type: toxicity, organism-based, Sprague-Dawley
Parameters: regimen Daily Repeat, gender Male, age 6-8 weeks
Conditions: in vivo, po, route oral GAVAGE, vehicle .5 % CMC; for BASOPHIL / EOSINOPHIL / ERYTHROCYTE COUNT / HEMATOCRIT / HEMOGLOBIN / LEUKOCYTE COUNT / LYMPHOCYTE / MEAN CORPUSCULAR HEMOGLOBIN / MEAN CORPUSCULAR HEMOGLOBIN CONCENTRATION / MEAN CORPUSCULAR VOLUME / MONOCYTE / NEUTROPHIL / PLATELET COUNT: tissue Blood; for ALANINE AMINOTRANSFERASE / ALBUMIN / ALKALINE PHOSPHATASE / ASPARTATE AMINOTRANSFERASE / BLOOD UREA NITROGEN / CHLORIDE / CHOLESTEROL / CREATINE PHOSPHOKINASE / CREATININE / GLUCOSE / PHOSPHORUS / POTASSIUM / SODIUM / TOTAL PROTEIN: tissue Plasma
[1] = 0 mg/kg, 72 h, dose level Control, time 3 day
[2] = 0 mg/kg, 120 h, dose level Control, time 5 day
[3] = 30 mg/kg, 72 h, dose level Low, time 3 day
[4] = 30 mg/kg, 120 h, dose level Low, time 5 day
[5] = 1750 mg/kg, 72 h, dose level High, time 3 day
[6] = 1750 mg/kg, 120 h, dose level High, time 5 day

CC(=O)Oc1ccc(C(c2ccc(OC(C)=O)cc2)c2ccccn2)cc1 [BISACODYL]
BASOPHIL [1]: 0% | EOSINOPHIL [1]: 0.33% | ERYTHROCYTE COUNT [1]: 6.03 x10E6/uL | HEMATOCRIT [1]: 38.8% | HEMOGLOBIN [1]: 14.26 G/DL | LEUKOCYTE COUNT [1]: 10.64 x10E3/uL | LYMPHOCYTE [1]: 83.33% | MEAN CORPUSCULAR HEMOGLOBIN [1]: 23.64 pg | MEAN CORPUSCULAR HEMOGLOBIN CONCENTRATION [1]: 36.74 G/DL | MEAN CORPUSCULAR VOLUME [1]: 64.32 fL | MONOCYTE [1]: 3.33% | NEUTROPHIL [1]: 13% | PLATELET COUNT [1]: 1264.4 x10E3/uL | ALANINE AMINOTRANSFERASE [1]: 38.83 u/L | ALBUMIN [1]: 3.55 G/DL | ALKALINE PHOSPHATASE [1]: 368.33 u/L | ASPARTATE AMINOTRANSFERASE [1]: 66.17 u/L | BLOOD UREA NITROGEN [1]: 15.67 mg/dL | CHLORIDE [1]: 104.33 MEQ/L | CHOLESTEROL [1]: 76.5 mg/dL | CREATINE PHOSPHOKINASE [1]: 166.83 u/L | CREATININE [1]: 0.52 mg/dL | GLUCOSE [1]: 173.17 mg/dL | PHOSPHORUS [1]: 11.68 mg/dL | POTASSIUM [1]: 6.43 MEQ/L | SODIUM [1]: 149.5 MEQ/L | TOTAL PROTEIN [1]: 5.93 G/DL | BASOPHIL [2]: 0% | EOSINOPHIL [2]: 0% | ERYTHROCYTE COUNT [2]: 5.88 x10E6/uL | HEMATOCRIT [2]: 37.87% | HEMOGLOBIN [2]: 14.48 G/DL | LEUKOCYTE COUNT [2]: 12.43 x10E3/uL | LYMPHOCYTE [2]: 84.17% | MEAN CORPUSCULAR HEMOGLOBIN [2]: 24.65 pg | MEAN CORPUSCULAR HEMOGLOBIN CONCENTRATION [2]: 38.25 G/DL | MEAN CORPUSCULAR VOLUME [2]: 64.47 fL | MONOCYTE [2]: 4.33% | NEUTROPHIL [2]: 11.5% | PLATELET COUNT [2]: 1182.33 x10E3/uL | ALANINE AMINOTRANSFERASE [2]: 38.67 u/L | ALBUMIN [2]: 3.55 G/DL | ALKALINE PHOSPHATASE [2]: 342.5 u/L | ASPARTATE AMINOTRANSFERASE [2]: 63.33 u/L | BLOOD UREA NITROGEN [2]: 15.5 mg/dL | CHLORIDE [2]: 104 MEQ/L | CHOLESTEROL [2]: 75.5 mg/dL | CREATINE PHOSPHOKINASE [2]: 142.5 u/L | CREATININE [2]: 0.62 mg/dL | GLUCOSE [2]: 165.17 mg/dL | PHOSPHORUS [2]: 10.87 mg/dL | POTASSIUM [2]: 6.85 MEQ/L | SODIUM [2]: 150.17 MEQ/L | TOTAL PROTEIN [2]: 5.93 G/DL | BASOPHIL [3]: 0% | EOSINOPHIL [3]: 0% | ERYTHROCYTE COUNT [3]: 6.9 x10E6/uL | HEMATOCRIT [3]: 44.1% | HEMOGLOBIN [3]: 16.25 G/DL | LEUKOCYTE COUNT [3]: 9.75 x10E3/uL | LYMPHOCYTE [3]: 83% | MEAN CORPUSCULAR HEMOGLOBIN [3]: 23.55 pg | MEAN CORPUSCULAR HEMOGLOBIN CONCENTRATION [3]: 36.85 G/DL | MEAN CORPUSCULAR VOLUME [3]: 63.85 fL | MONOCYTE [3]: 4% | NEUTROPHIL [3]: 13% | PLATELET COUNT [3]: 1188.5 x10E3/uL | ALANINE AMINOTRANSFERASE [3]: 37.67 u/L | ALBUMIN [3]: 3.67 G/DL | ALKALINE PHOSPHATASE [3]: 281 u/L | ASPARTATE AMINOTRANSFERASE [3]: 63 u/L | BLOOD UREA NITROGEN [3]: 17 mg/dL | CHLORIDE [3]: 107 MEQ/L | CHOLESTEROL [3]: 72 mg/dL | CREATINE PHOSPHOKINASE [3]: 177 u/L | CREATININE [3]: 0.53 mg/dL | GLUCOSE [3]: 181 mg/dL | PHOSPHORUS [3]: 12.17 mg/dL | POTASSIUM [3]: 7.3 MEQ/L | SODIUM [3]: 152 MEQ/L | TOTAL PROTEIN [3]: 6.1 G/DL | BASOPHIL [4]: 0% | EOSINOPHIL [4]: 0.67% | ERYTHROCYTE COUNT [4]: 6.91 x10E6/uL | HEMATOCRIT [4]: 43.53% | HEMOGLOBIN [4]: 16.47 G/DL | LEUKOCYTE COUNT [4]: 13.9 x10E3/uL | LYMPHOCYTE [4]: 85% | MEAN CORPUSCULAR HEMOGLOBIN [4]: 23.9 pg | MEAN CORPUSCULAR HEMOGLOBIN CONCENTRATION [4]: 37.97 G/DL | MEAN CORPUSCULAR VOLUME [4]: 63 fL | MONOCYTE [4]: 3.33% | NEUTROPHIL [4]: 11% | PLATELET COUNT [4]: 1208 x10E3/uL | ALANINE AMINOTRANSFERASE [4]: 36.67 u/L | ALBUMIN [4]: 3.53 G/DL | ALKALINE PHOSPHATASE [4]: 306.33 u/L | ASPARTATE AMINOTRANSFERASE [4]: 66 u/L | BLOOD UREA NITROGEN [4]: 19 mg/dL | CHLORIDE [4]: 106.33 MEQ/L | CHOLESTEROL [4]: 70.33 mg/dL | CREATINE PHOSPHOKINASE [4]: 149.33 u/L | CREATININE [4]: 0.53 mg/dL | GLUCOSE [4]: 193.33 mg/dL | PHOSPHORUS [4]: 12.23 mg/dL | POTASSIUM [4]: 6.8 MEQ/L | SODIUM [4]: 151.67 MEQ/L | TOTAL PROTEIN [4]: 5.7 G/DL | BASOPHIL [5]: 0% | EOSINOPHIL [5]: 0% | ERYTHROCYTE COUNT [5]: 7.45 x10E6/uL | HEMATOCRIT [5]: 45.8% | HEMOGLOBIN [5]: 17.43 G/DL | LEUKOCYTE COUNT [5]: 12.3 x10E3/uL | LYMPHOCYTE [5]: 35.67% | MEAN CORPUSCULAR HEMOGLOBIN [5]: 23.5 pg | MEAN CORPUSCULAR HEMOGLOBIN CONCENTRATION [5]: 38.13 G/DL | MEAN CORPUSCULAR VOLUME [5]: 61.47 fL | MONOCYTE [5]: 13.67% | NEUTROPHIL [5]: 50.67% | PLATELET COUNT [5]: 1194 x10E3/uL | ALANINE AMINOTRANSFERASE [5]: 34 u/L | ALBUMIN [5]: 4.3 G/DL | ALKALINE PHOSPHATASE [5]: 166 u/L | ASPARTATE AMINOTRANSFERASE [5]: 53 u/L | BLOOD UREA NITROGEN [5]: 64 mg/dL | CHLORIDE [5]: 84 MEQ/L | CHOLESTEROL [5]: 44 mg/dL | CREATINE PHOSPHOKINASE [5]: 148 u/L | CREATININE [5]: 0.7 mg/dL | GLUCOSE [5]: 165 mg/dL | PHOSPHORUS [5]: 9.4 mg/dL | POTASSIUM [5]: 8.2 MEQ/L | SODIUM [5]: 131 MEQ/L | TOTAL PROTEIN [5]: 7.9 G/DL | BASOPHIL [6]: 0% | EOSINOPHIL [6]: 0% | ERYTHROCYTE COUNT [6]: 7.22 x10E6/uL | HEMATOCRIT [6]: 44.95% | HEMOGLOBIN [6]: 16.55 G/DL | LEUKOCYTE COUNT [6]: 14.05 x10E3/uL | LYMPHOCYTE [6]: 38% | MEAN CORPUSCULAR HEMOGLOBIN [6]: 22.95 pg | MEAN CORPUSCULAR HEMOGLOBIN CONCENTRATION [6]: 36.8 G/DL | MEAN CORPUSCULAR VOLUME [6]: 62.3 fL | MONOCYTE [6]: 6.5% | NEUTROPHIL [6]: 55.5% | PLATELET COUNT [6]: 1469 x10E3/uL | ALANINE AMINOTRANSFERASE [6]: 29 u/L | ALBUMIN [6]: 3.9 G/DL | ALKALINE PHOSPHATASE [6]: 258 u/L | ASPARTATE AMINOTRANSFERASE [6]: 36 u/L | BLOOD UREA NITROGEN [6]: 37 mg/dL | CHLORIDE [6]: 102.5 MEQ/L | CHOLESTEROL [6]: 71 mg/dL | CREATINE PHOSPHOKINASE [6]: 190 u/L | CREATININE [6]: 0.7 mg/dL | GLUCOSE [6]: 183 mg/dL | PHOSPHORUS [6]: 12.1 mg/dL | POTASSIUM [6]: 8 MEQ/L | SODIUM [6]: 147.5 MEQ/L | TOTAL PROTEIN [6]: 7.6 G/DL
